Read-outs that look alike come from different tables or passages of the source.
Columns and labels:
tumor cells = details: cited from earlier work; for differential cytotoxic effect, tumor cells versus normal cells: well defined culture conditions
[1] = tested on: normal arteries including the celiac, subclavian and popliteal arteries
Method: Moreover, in several other patients, a PUFA was injected into normal arteries including the celiac, subclavian and popliteal arteries.
(§1) In order to determine how the arterial supply to the tumor tissue was influenced by the injection of PUFA salt, angiography was performed and recorded during and immediately after the procedure, and at periodic intervals thereafter.

tumor-feeding vessels = tested on: tumor-feeding vessels
Method: (§2) Studies were conducted in 5 human patients with stage 4 neoplastic disease. Two of the patients had primary hepatoma (patients 1 and 2), two had giant cell tumor of the bone (patients 3 and 4) and one had renal cell carcinoma (patient 5).
(§3) The lithium salt of GLA was obtained from Scotia Pharmaceuticals, U.K. The PUFA salt was dissolved in sterile saline, sterile phosphate buffered saline (PBS, pH 7.4) or dilute ethanol in saline (final concentration <0.02% ethanol). The final concentration of PUFA in these solutions was approximately 25%. The PUFA solution was mixed with an iodized lymphographic oil (LIPIODOL ULTRA FLUIDE®, Laboratoire Guerbet, Paris, France), in a ratio of between 1:1.5 and 1:3 (volume/volume). In some cases, the PUFA was modified by covalent conjugation (e.g., amide bond) to the iodized lymphographic oil. In other cases the PUFA salt was unmodified, and was diluted directly into the lymphographic agent without conjugation. The PUFA and lymphographic oil mixture was prepared under sterile conditions immediately prior to use.
(§4) Patients were admitted into the hospital for the study. A proximal artery suppling a major portion of the blood supply to the tumor was identified. Catheterization of the major artery from which the proximal artery arises was performed under local anaesthesia. In patients 1 and 2 (with hepatomas), the tip of the catheter was positioned in the right hepatic artery via the right femoral artery. In patient 3 (with giant cell tumor of the right lower end of the femur), the tip of the catheter was positioned in the right femoral/popliteal artery. In patient 4 (with giant cell tumor of the left scapula), the tip of the catheter was positioned in the left subdlavian/axillary arteries. In patient 5 (with left kidney tumor), the tip of the catheter was positioned in the left renal artery. Conjugated PUFA salt was prepared fresh, just prior to injection. Radiographic and CT scan examinations were performed immediately after the injection and at periodic intervals in all the five patients.
as §1
(§5) Patients 1 and 2 with hepatoma were administered total doses of 1.6 gm and 0.75 gm respectively (the dose refers to the amount of Li-GLA) of PUFA salt into the right hepatic artery through the right femoral route. Patient 3, with giant cell tumor of the lower end of the right femur, underwent right femoral artery catheterization and the tip of the catheter was positioned in the popliteal artery to deliver 500 mg of PUFA salt. Patient 4, who had giant cell tumor of the left scapula, received PUFA salt by selective cannulation of the left subdlavian artery, through the femoral route, from which the tumor-feeding vessel was arising and was given 660 mg of PUFA salt. Patient 5, with renal tumor, received 750 mg of PUFA salt through the right femoral route into the left renal artery from which the tumor-feeding vessels were arising. In all the patients, the administration of PUFA salt was done as swiftly as possible. During the administration of PUFA salt, the vital signs of each patient were monitored.

[2] = tested on: stage 4 neoplastic disease (hepatoma, giant cell tumor of the bone, renal cell carcinoma)
Method: as §2, §3, §4
as §5, with “Patient 5, with renal tumor, received 750 mg of PUFA salt through the right femoral route into the left renal artery from which the tumor-feeding vessels were arising. In all the patients, the administration of PUFA salt was done as swiftly as possible.” left out

[3] = Method: as §4, §5
human gliomas = details: direct intra-tumoral administration; cited from earlier work
[4] = patient 4, seven and a half years after injection

CC/C=C\C/C=C\C/C=C\C/C=C\C/C=C\C/C=C\CCC(=O)O [DHA, docosahexaenoic acid]
differential cytotoxic effect, tumor cells versus normal cells (tumor cells): marked differential cytotoxic effect

CCCCC/C=C\C/C=C\C/C=C\C/C=C\CCCC(=O)O [AA, arachidonic acid]
differential cytotoxic effect, tumor cells versus normal cells (tumor cells): marked differential cytotoxic effect

CC/C=C\C/C=C\C/C=C\C/C=C\C/C=C\CCCC(=O)O [EPA, eicosapentaenoic acid]
differential cytotoxic effect, tumor cells versus normal cells (tumor cells): marked differential cytotoxic effect

CCCCC/C=C\C/C=C\C/C=C\CCCCC(=O)[O-].[Li+] [PUFA salt, lithium salt of GLA]
occlusion of normal arteries feeding the normal lower pole of the kidney ([1]; patient 5, 750 mg, renal artery): without any occlusion | occlusion of normal vasculature feeding non-neoplastic tissues ([1]; patients treated with PUFA salt, angiograms): No occlusion | spasms or occlusions of normal arteries after injection ([1]; several other patients, injection into celiac, subclavian and popliteal arteries): no spasms or occlusions | occlusion of the tumor-feeding vessels following PUFA salt injection (tumor-feeding vessels; all 5 patients, intra-arterial, 0.5-1.6 gm Li-GLA mixed with or conjugated to LIPIODOL): total occlusion of the tumor-feeding vessels | speed of occlusion of tumor-feeding vessels (tumor-feeding vessels; all types of tumor-feeding vessels, irrespective of size): almost instantaneously | occlusion of tumor-feeding vessels in third angiogram (tumor-feeding vessels; patient 1, hepatoma, 1 week after second dose (0.5 gm), 11th day after first dose): almost complete occlusion | tumor blush in repeat angiogram (tumor-feeding vessels; patient 1, hepatoma, 4 days after first dose): much reduced | tumor-feeding vessels visible on repeat angiogram (tumor-feeding vessels; patient 1, hepatoma, 28 days after injection): no tumor-feeding vessels could be seen | tumor-feeding vessels occluded following the first injection (tumor-feeding vessels; patient 1, hepatoma, first dose 1.1 gm, right hepatic artery): More than 50% | timing of occlusion of tumor-feeding vessels (tumor-feeding vessels; patient 2, hepatoma): essentially simultaneously with the injection | occlusion of tumor-feeding vessels immediately after injection (tumor-feeding vessels; patient 2, hepatoma, 750 mg, right hepatic artery): complete occlusion | state of occluded tumor-feeding vessels in repeat angiogram (tumor-feeding vessels; patient 3, 10 days after injection): remained closed | occlusion of tumor-feeding vessels immediately after injection (tumor-feeding vessels; patient 3, giant cell tumor of right femur, 500 mg, femoral/popliteal artery): Complete occlusion | occlusion of tumor-feeding vessels immediately after administration (tumor-feeding vessels; patient 4, giant cell tumor of left scapula, 660 mg, left subclavian artery): Complete occlusion | state of tumor-feeding vessels in follow-up angiogram (tumor-feeding vessels; [4]): still occluded | occlusion of tumor-feeding arteries (tumor-feeding vessels; patient 5, renal cell carcinoma, 750 mg, renal artery): Complete occlusion | weight gain after injection ([2]; patient 1, hepatoma, 6 months following the injection): > 10 kgs | reduction in the size of the hepatoma ([2]; patient 1, one month after the first injection): More than 50% | state of the tumor mass at follow-up [2, 4]: completely calcified | survival after injection ([2]; patient 5, advanced renal cell carcinoma with secondary tumors): 3 months | side-effects due to the therapy ([3]; all 5 patients): no significant side-effects | tolerability of the treatment ([3]; all 5 patients): tolerated the treatment well | biochemical tests after administration ([3]; all patients): normal | side-effect observed ([3]; during and immediately after the injection): mild feeling of warmth followed by pain at the site of the tumor | time until pain subsided ([3]; patient 2, mild to moderate pain in the hepatic region, NSAIDs given): 24 to 48 h

CCCCC/C=C\C/C=C\C/C=C\CCCCC(=O)O [GLA, gamma-linolenic acid]
effect on human gliomas (human gliomas): can regress human gliomas | side-effects (human gliomas): without significant side-effects | selectivity of tumoricidal action in mixed culture (tumor cells; normal and tumor cells grown together): more selective tumoricidal action compared to AA and EPA | differential cytotoxic effect, tumor cells versus normal cells (tumor cells): marked differential cytotoxic effect
